Data on 37 compounds can be found in US20230321086A1, “METHODS AND MATERIALS FOR INHIBITING NICOTINAMIDE PHOSPHORIBOSYLTRANSFERASE ACTIVITY” (Universiy of Pittsburgh - Of the Commonwealth System of …, priority 2020, published 2023).

Some results are limits rather than exact numbers.

Experiment [1] concerns the target NAMPT (Homo sapiens, UniProt P43490). In words: Assay for in vitro NAMPT activity via NMN assessment. The format is biochemical. The settings on record: read-out: A: NAMPT enzyme inhibitory activity, IC50. The procedure: The following were added to a well: 20 μL 2× test compound in Basic Buffer (0.02% BSA, 2 mM DTT, 12 mM MgCl2, 50 mM Tris pH7.5); 10 μL 8 μg/mL NAMPT, and 200 μM PRPP working solution (or PRPP working solution to background wells). 10 μL 100 μM NAM working solution was added to start the reaction. The plate was sealed and incubated for 45 minutes at 37° C. After incubation, 10 μL 20% acetophenone in DMSO, 10 μL 2N KOH, and 20 μL 88% formic acid were added. The plate was sealed and incubated for 30 minutes at 37° C. After incubation, fluorescence at Ex/Em 387/441 was read.
In each table header, A: NAMPT enzyme inhibitory activity, IC50 (μM); B: Cellular NAD inhibitory activity, IC50 (μM); and C: change in NAD levels in response to test compound, shown as % of NAD activity in the absence of test compound. […] A percentage of 100 percent would indicate no increase or decrease in NAD levels as compared to that measured for untreated control cells, while a percentage of 50 percent would indicate a decrease in NAD levels of 50 percent as compared to that measured for untreated control cells.

The subject of experiment [2] is A431 cells. Briefly: Assay for total NADH and NAD+ measurements in cells. The format is cell-based. The note with it: Homo sapiens, A-431, read-out: B: Cellular NAD inhibitory activity, IC50. The essentials: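 Cells (2,000/well) treated with compounds overnight, washed with PBS containing 1 mM CaCl2 and MgCl2, lysed with 0.4% DTAB in phosphate buffer pH 8.0. Reaction mix added and fluorescence (Ex/Em 530/585) followed over 8 cycles every 92 seconds; NAD given as % of untreated control.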

NAMPT, sequence (P43490 whole entry, species assumed): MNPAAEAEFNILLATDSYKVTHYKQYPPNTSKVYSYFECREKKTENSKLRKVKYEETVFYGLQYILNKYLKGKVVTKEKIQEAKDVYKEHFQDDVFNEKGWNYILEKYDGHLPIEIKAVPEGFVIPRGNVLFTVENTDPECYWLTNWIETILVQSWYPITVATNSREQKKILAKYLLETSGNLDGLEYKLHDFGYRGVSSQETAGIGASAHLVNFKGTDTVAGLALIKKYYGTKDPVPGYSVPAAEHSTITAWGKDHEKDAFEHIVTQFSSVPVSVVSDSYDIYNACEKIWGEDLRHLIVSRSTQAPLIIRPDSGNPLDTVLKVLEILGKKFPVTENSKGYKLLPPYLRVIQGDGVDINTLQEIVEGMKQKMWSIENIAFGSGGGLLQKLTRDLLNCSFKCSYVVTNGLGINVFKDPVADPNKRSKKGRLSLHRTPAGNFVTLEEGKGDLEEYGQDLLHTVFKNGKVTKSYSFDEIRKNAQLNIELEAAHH

Turning to `Fc1ccc(-c2nc3ccc(NC(=S)N4Cc5ccccc5C4)cc3nc2-c2ccc(F)cc2)cc1` [BC20322], the IC50 in experiment [1] and in experiment [2] was < 1000 nM each time.
In the case of `Nc1ccc(CNC(=S)Nc2ccc3nc(-c4ccc(F)cc4)c(-c4ccc(F)cc4)nc3c2)cn1` [BC20323], the IC50 in experiment [1] and in experiment [2] was < 1000 nM throughout.
As to `Nc1ccc(CNC(=S)Nc2cnc3nc(-c4ccc(F)cc4)c(-c4ccc(F)cc4)nc3c2)cn1` [BC20324], the IC50 in experiment [1] and in experiment [2] was < 1000 nM throughout.
As for `Nc1ccc(CCNC(=O)Nc2cnc3nc(-c4ccc(F)cc4)c(-c4ccc(F)cc4)nc3c2)cn1` [BC20320], the IC50 in experiment [1] and in experiment [2] was < 1000 nM in each case.
In the case of `O=C(NCCc1cccnc1)Nc1cnc2nc(-c3ccc(Cl)cc3)c(-c3ccc(Cl)cc3)nc2c1` [BC20311], the IC50 in experiment [1] and in experiment [2] was < 1000 nM in each case.
`Fc1ccc(-c2nc3cc(NC(=S)NCCc4cccnc4)cnc3nc2-c2ccc(F)cc2)cc1` [BC20309]: the IC50 in experiment [1] and in experiment [2] was < 1000 nM in each case.
In the case of `O=C(Nc1cnc2nc(-c3ccc(F)cc3)c(-c3ccc(F)cc3)nc2c1)N1Cc2cccnc2C1` [BC20321], the half-maximal inhibitory concentration (IC50) in experiment [1] and in experiment [2] was < 1000 nM throughout.
Take `O=C(NCc1cnc2nc(-c3ccc(F)cc3)c(-c3ccc(F)cc3)nc2c1)c1cc2ccccc2s1` [BC20329]: the IC50 (commonly the concentration that inhibits the measured activity by half) is ≥ 25000 nM in experiment [1] and 1000 to 25000 nM in experiment [2].
The like results for `O=C(NCc1cnc2nc(-c3ccc(F)cc3)c(-c3ccc(F)cc3)nc2c1)Nc1cccnc1` [BC20325] were, in that order, < 1000 nM and < 1000 nM.
On to `O=C(NCCc1cccnc1)c1cnc2nc(-c3ccc(F)cc3)c(-c3ccc(F)cc3)nc2c1` [BC20205], for which the IC50 in experiment [1] and in experiment [2] was < 1000 nM each time.
Take `O=C(Nc1cnc2nc(-c3ccc(F)cc3)c(-c3ccc(F)cc3)nc2c1)N1Cc2ccncc2C1` [BC20334]: the half-inhibitory concentration (IC50) in experiment [1] and in experiment [2] was < 1000 nM in each case.
On to `O=C(NCc1cnc2nc(-c3ccc(F)cc3)c(-c3ccc(F)cc3)nc2c1)N1Cc2cccnc2C1` [BC20332], for which the IC50 in experiment [1] and in experiment [2] was < 1000 nM each time.
In the case of `O=C(NCc1cccnc1)Nc1cnc2nc(-c3ccc(F)cc3)c(-c3ccc(F)cc3)nc2c1` [BC20213], the IC50 in experiment [1] and in experiment [2] was < 1000 nM in each case.
For the compound `O=C(NCCc1cncs1)Nc1cnc2nc(-c3ccc(F)cc3)c(-c3ccc(F)cc3)nc2c1` [BC20315], the IC50 in experiment [1] and in experiment [2] was < 1000 nM each time.
On to `O=C(NCc1cccnc1)NCc1cnc2nc(-c3ccc(F)cc3)c(-c3ccc(F)cc3)nc2c1` [BC20326], for which the IC50 in experiment [1] and in experiment [2] was 1000 to 25000 nM throughout.
For `O=C(NCCc1cccnc1)Nc1ccc2nc(-c3ccc(F)cc3)c(-c3ccc(F)cc3)nc2c1` [BC20216], the IC50 in experiment [1] and in experiment [2] was < 1000 nM each time.
As for `Nc1ccc(CNC(=O)Nc2cnc3nc(-c4ccc(F)cc4)c(-c4ccc(F)cc4)nc3c2)cn1` [BC20316], the half-maximal inhibitory concentration (IC50) in experiment [1] and in experiment [2] was < 1000 nM each time.
In the case of `O=C(NCCc1cn[nH]c1)Nc1cnc2nc(-c3ccc(F)cc3)c(-c3ccc(F)cc3)nc2c1` [BC20318], the IC50 in experiment [1] and in experiment [2] was < 1000 nM in each case.
Take `O=C(NCc1ccc2nc(-c3ccc(F)cc3)c(-c3ccc(F)cc3)nc2c1)Nc1cccnc1` [BC20235]: the IC50 in experiment [1] and in experiment [2] was < 1000 nM each time.
As to `O=C(NCc1cnc2nc(-c3ccc(F)cc3)c(-c3ccc(F)cc3)nc2c1)c1cc2ccncc2o1` [BC20328], the IC50 in experiment [1] and in experiment [2] was < 1000 nM each time.
For the compound `O=C(NCCc1cccnn1)Nc1cnc2nc(-c3ccc(F)cc3)c(-c3ccc(F)cc3)nc2c1` [BC20314], the IC50 in experiment [1] and in experiment [2] was < 1000 nM each time.
On to `O=C(Nc1cccnc1)Nc1cnc2nc(-c3ccc(F)cc3)c(-c3ccc(F)cc3)nc2c1` [BC20254], for which the IC50 in experiment [1] and in experiment [2] was < 1000 nM throughout.
For the compound `O=C(Nc1ccc2nc(-c3ccc(F)cc3)c(-c3ccc(F)cc3)nc2c1)N1Cc2ccccc2C1` [BC20330], the IC50 in experiment [1] and in experiment [2] was < 1000 nM each time.
Regarding `O=C(NCc1cnc2nc(-c3ccc(F)cc3)c(-c3ccc(F)cc3)nc2c1)N1Cc2ccncc2C1` [BC20327], the IC50 in experiment [1] and in experiment [2] was < 1000 nM throughout.
`Nc1ccc(CNC(=O)Nc2ccc3nc(-c4ccc(F)cc4)c(-c4ccc(F)cc4)nc3c2)cn1` [BC20331]: the IC50 in experiment [1] and in experiment [2] was < 1000 nM in each case.
On to `O=C(NCCc1c[nH]cn1)Nc1cnc2nc(-c3ccc(F)cc3)c(-c3ccc(F)cc3)nc2c1` [BC20319], for which the IC50 in experiment [1] and in experiment [2] was < 1000 nM in each case.
With `O=C(NCc1cccnc1)c1ccc2nc(-c3ccccc3)c(-c3ccccc3)nc2c1` [BC18405], the half-inhibitory concentration (IC50) in experiment [1] and in experiment [2] was < 1000 nM throughout.
As to `O=C(Nc1cccnc1)Nc1ccc2nc(-c3ccc(F)cc3)c(-c3ccc(F)cc3)nc2c1` [BC20224], the IC50 in experiment [1] and in experiment [2] was < 1000 nM throughout.
On to `O=C(NCCc1cccnc1)Nc1cnc2nc(-c3ccc(F)cc3)c(-c3ccc(F)cc3)nc2c1` [BC20268], for which the IC50 in experiment [1] and in experiment [2] was < 1000 nM in each case.
Regarding `COCCNC(=O)N1CCC[C@H](CNC(=O)c2ccc3nc(-c4ccc(F)cc4)c(-c4ccc(F)cc4)nc3c2)C1` [BC20282], the IC50 in experiment [1] was ≥ 25000 nM.
For `O=C(Nc1cnc2nc(-c3ccc(F)cc3)c(-c3ccc(F)cc3)nc2c1)N1Cc2ccccc2C1` [BC20317], the half-maximal inhibitory concentration (IC50) in experiment [1] and in experiment [2] was < 1000 nM in each case.
For `CS(=O)(=O)N1CCC[C@H](CNC(=O)c2ccc3nc(-c4ccc(F)cc4)c(-c4ccc(F)cc4)nc3c2)C1` [BC20270], in experiment [1], the IC50 was ≥ 25000 nM.
On the same count and under the same terms, in the case of `C#CCNC(=O)c1ccc2nc(-c3cccc(NC(C)=O)c3)c(-c3cccc(NC(C)=O)c3)nc2c1` [BC20227] it was ≥ 25000 nM; in that of `O=C1N(Cc2cccnc2)CCCN1c1ccc2nc(-c3ccc(F)cc3)c(-c3ccc(F)cc3)nc2c1` [BC20219], ≥ 25000 nM; in that of `C#CCNC(=O)c1ccc2nc(-c3cccc(CNC(=O)CN(C)C)c3)c(-c3cccc(CNC(=O)CN(C)C)c3)nc2c1` [BC20289], ≥ 25000 nM.
Still for that read-out and setting: in the case of `CN1CCN(C(=O)c2ccc3nc(-c4cccc(CN5CCCC5)c4)c(-c4ccc(F)cc4)nc3c2)CC1` [BC20248] it was ≥ 25000 nM.
For `O=C(Nc1ccc2nc(-c3ccc(F)cc3)c(-c3ccc(F)cc3)nc2c1)N1Cc2cccnc2C1` [BC20333], the IC50 in experiment [1] and in experiment [2] was < 1000 nM each time.
